{
  "source": "patent EP2390266A1",
  "about": "“3-D Conformation of GLIC and allosteric modulation thereof” (priority 2010, dated 2011)",
  "key": {"GLIC": {"target": "T1, GLIC (Gloeobacter violaceus, UniProt Q7NDN8)", "T1 sequence (Q7NDN8 44-359)": "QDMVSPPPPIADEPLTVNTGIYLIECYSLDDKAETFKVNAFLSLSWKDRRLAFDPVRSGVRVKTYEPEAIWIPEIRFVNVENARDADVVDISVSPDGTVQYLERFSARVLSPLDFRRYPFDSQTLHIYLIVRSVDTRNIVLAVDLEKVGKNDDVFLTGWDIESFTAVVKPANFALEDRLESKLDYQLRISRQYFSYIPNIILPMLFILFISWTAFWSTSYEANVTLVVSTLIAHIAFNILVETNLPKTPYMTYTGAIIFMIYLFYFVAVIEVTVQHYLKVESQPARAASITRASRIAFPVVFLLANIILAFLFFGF", "conditions": "cited from earlier work; for inhibition of GLIC: at clinical concentration; for nH: Hill number of the inhibition curve; for nH / currents inhibited by up to: EC20 concentration (pH 4.7-5.3) of protons; for IC50: currents elicited by an EC20 concentration (pH 4.7-5.3) of protons; for currents inhibited by up to: maximal inhibition"}, "wild-type GLIC": {"target": "wild-type GLIC (Gloeobacter violaceus, UniProt Q7NDN8)", "test": "cell-based", "procedure": "(§1) We monitored the inhibitory action of both anesthetics by two-electrode voltage clamp on oocytes expressing the GLIC channel. A typical experiment consists at activating the GLIC channel by an EC20 concentration of protons for 5 min, a period during which anesthetics are applied for 1min, 1 min after the onset of proton application."}, "V242M mutated GLIC": {"tested_on": "V242M mutated GLIC", "test": "Two-electrode voltage clamp on oocytes, mutant GLIC", "assay_type": "cell-based, Gloebacter violaceus", "procedure": "(§2) • Figure 3A. […] Xenopus laevis oocytes, holding potential -60 to -40 mV.\n(§3) For desflurane inhibition (figures 3C-3F), full dose-inhibition curves were measured at pH20."}, "T255A mutated GLIC": {"tested_on": "T255A mutated GLIC", "test": "Two-electrode voltage clamp on oocytes, mutant GLIC", "assay_type": "cell-based, Gloebacter violaceus", "procedure": "as §2, §3"}, "I202A mutated GLIC": {"tested_on": "I202A mutated GLIC", "test": "Two-electrode voltage clamp on oocytes, mutant GLIC", "assay_type": "cell-based, Gloebacter violaceus", "procedure": "as §2, §3"}, "I202Y mutated GLIC": {"tested_on": "I202Y mutated GLIC", "test": "Two-electrode voltage clamp on oocytes, mutant GLIC", "assay_type": "cell-based, Gloebacter violaceus", "procedure": "as §2, §3"}, "I202W mutated GLIC": {"tested_on": "I202W mutated GLIC", "test": "Two-electrode voltage clamp on oocytes, mutant GLIC", "assay_type": "cell-based, Gloebacter violaceus", "procedure": "as §2, §3"}, "I258M mutated GLIC": {"tested_on": "I258M mutated GLIC", "conditions": "activation at pH20 (pH 5.5 to 5.8)", "procedure": "as §1\n(§4) Key residues contacting or neighboring propofol and desflurane in the 3D structure were mutated to alanine, or to more bulky residues in order to decrease the size of the binding pocket (mutants I202 A,Y,W, V242 A,M,W, T255A and I258A,M). […] Mutants were first characterized by their trace currents and proton dose-response curve (figures 3C-3F)."}, "V242A mutated GLIC": {"tested_on": "V242A mutated GLIC", "procedure": "as §1, §4"}, "I258A mutated GLIC": {"tested_on": "I258A mutated GLIC", "conditions": "activation at pH20 (pH 5.5 to 5.8)", "procedure": "as §1, §4"}, "[1]": {"conditions": "activation at pH20 (pH 5.5 to 5.8), 10 µM propofol (Fig. 3C)"}, "[2]": {"conditions": "increased sensitivity for propofol"}, "[3]": {"conditions": "activation at pH20 (pH 6.5-6.8), 10 µM propofol (Fig. 3C)"}},
  "data": [
    {"smiles": "CCOC(=O)c1cncn1[C@H](C)c1ccccc1", "note": "[etomidate, ethyl 3-[(1R)-1-phenylethyl]imidazole-4-carboxylate]", "values": [
      {"measurement": "inhibition of GLIC", "setting": "GLIC", "value": "robustly inhibited"}
    ]},
    {"smiles": "CC(C)c1cccc(C(C)C)c1O", "note": "[propofol, 2,6-diisopropylphenol]", "values": [
      {"measurement": "inhibition of GLIC", "setting": "wild-type GLIC; higher proton concentration (at the EC50)", "value": "no longer observed"},
      {"measurement": "inhibition at 10 µM", "setting": "wild-type GLIC; read-out: inhibition of GLIC", "value": 28, "unit": "%"},
      {"measurement": "nH", "setting": "GLIC", "value": 0.39},
      {"measurement": "inhibition of GLIC", "setting": "GLIC", "value": "robustly inhibited"},
      {"measurement": "IC50", "setting": "GLIC", "value": 0.6, "unit": "µM"},
      {"measurement": "currents inhibited by up to", "setting": "GLIC", "value": "up to 90%"},
      {"measurement": "propofol inhibition compared with WT", "setting": "V242M mutated GLIC; [1]", "value": "more inhibited"},
      {"measurement": "propofol dose-inhibition curve compared with wt", "setting": "V242M mutated GLIC; [2]", "value": "shift of the dose-inhibition curve toward the left"},
      {"measurement": "propofol inhibition compared with WT", "setting": "T255A mutated GLIC; [3]", "value": "more inhibited"},
      {"measurement": "propofol dose-inhibition curve compared with wt", "setting": "T255A mutated GLIC; [2]", "value": "shift of the dose-inhibition curve toward the left"},
      {"measurement": "propofol inhibition compared with WT", "setting": "I202A mutated GLIC; [1]", "value": "not significantly different from WT"},
      {"measurement": "propofol inhibition compared with WT", "setting": "I202Y mutated GLIC; [3]", "value": "not significantly different from WT"},
      {"measurement": "propofol inhibition compared with WT", "setting": "I202W mutated GLIC; [1]", "value": "not significantly different from WT"},
      {"measurement": "propofol inhibition compared with WT", "setting": "I258M mutated GLIC", "value": "not significantly different from WT"},
      {"measurement": "propofol inhibition compared with WT", "setting": "V242A mutated GLIC; activation at pH20 (pH 5.5 to 5.8)", "value": "more inhibited"},
      {"measurement": "propofol dose-inhibition curve compared with wt", "setting": "V242A mutated GLIC; [2]", "value": "shift of the dose-inhibition curve toward the left"},
      {"measurement": "propofol inhibition compared with WT", "setting": "I258A mutated GLIC", "value": "not significantly different from WT"}
    ]},
    {"smiles": "FC(F)OC(F)C(F)(F)F", "note": "(stereo not shown) [desflurane, 2-(difluoromethoxy)-1,1,1,2-tetrafluoro-ethane]", "values": [
      {"measurement": "nH", "setting": "GLIC", "value": 0.24},
      {"measurement": "inhibition of GLIC", "setting": "GLIC", "value": "robustly inhibited"},
      {"measurement": "IC50", "setting": "GLIC", "value": 10, "unit": "µM"},
      {"measurement": "currents inhibited by up to", "setting": "GLIC", "value": "up to 90%"},
      {"measurement": "desflurane inhibition, full dose-inhibition curve compared with WT", "setting": "V242M mutated GLIC; at pH20", "value": "did not alter significantly"},
      {"measurement": "desflurane inhibition, full dose-inhibition curve compared with WT", "setting": "T255A mutated GLIC; at pH20, decreased sensitivity toward desflurane", "value": "dramatic shift of the curve to the right"},
      {"measurement": "desflurane inhibition, full dose-inhibition curve compared with WT", "setting": "I202A mutated GLIC; at pH20", "value": "did not alter significantly"},
      {"measurement": "desflurane inhibition, full dose-inhibition curve compared with WT", "setting": "I202Y mutated GLIC; at pH20", "value": "did not alter significantly"},
      {"measurement": "desflurane inhibition, full dose-inhibition curve compared with WT", "setting": "I202W mutated GLIC; at pH20", "value": "did not alter significantly"}
    ]},
    {"smiles": "CC(O)CC(=O)O", "note": "(stereo not shown) [3-hydroxybutyric acid]", "values": [
      {"measurement": "inhibition of GLIC", "setting": "GLIC", "value": "robustly inhibited"}
    ]}
  ]
}
